Reference: patent publication US9381200B2, “Nitrogen containing compounds” (WOCKHARDT LIMITED, priority 2011, dated 2016)
Converted amounts (≈) assume the structure as drawn. Where two headings read alike, the source gives them in different places.

Assays:
Assay type in all cases: cell-based
E. coli NCTC 13351 = assay: Antibacterial activity (MIC), agar dilution per CLSI; conditions: Escherichia coli, NCTC13351, Table 3, E. coli NCTC 13351 expressing ESBL, 16-20 hours, 35±2° C., read-out: MIC
Method in brief: (§1)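 Agar dilution MIC per CLSI: overnight cultures diluted and inoculated onto agar containing doubling dilutions of compound. Growth/no growth read after 16-20 h at 35±2° C in ambient air. Strains express ESBL.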

E. coli 7 MP = assay: as above; conditions: Escherichia coli, Table 3, E. coli 7 MP expressing ESBL, read-out: MIC
Method in brief: as §1

E. coli M 50 = assay: as above; conditions: Escherichia coli, read-out: MIC
Method in brief: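 MIC values (mcg/ml) are the lowest compound level on agar showing no growth. Each strain, taken from an overnight culture and diluted, is inoculated onto media carrying doubling dilutions of compound, then incubated for 16-20 hours at 35±2° C. without added CO2.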

E. Coli M 44 = assay: Antibacterial activity (MIC) against MDR Gram negative strains; conditions: Escherichia coli; Table 5; E. Coli M 44, Class B ESBL, MDR; read-out: MIC
Description: (§2) The biological activity of representative compounds according to the invention against various bacterial strains was investigated. In a typical study, overnight grown bacterial cultures were diluted appropriately and inoculated on the agar media containing doubling dilutions of the test compounds. Observation for growth or no growth was performed after 16-20 hours of incubation at 35±2° C. in ambient air. The overall procedure was performed as per Clinical and Laboratory Standards Institute (CLSI) recommendations (Clinical and Laboratory Standards Institute (CLSI), Performance Standards for Antimicrobial Susceptibility Testing, 20th Informational Supplement, M 100-S20, Volume 30, No. 1, 2010).
(§3) The activities are expressed as MICs (mcg/ml).

P. aeruginosa Ps 32 = assay: as above; conditions: Pseudomonas aeruginosa, PS32; Table 5; P. aeruginosa Ps 32; read-out: MIC
Description: as §2, §3

P. aeruginosa ATCC 27853 = assay: as above; conditions: Pseudomonas aeruginosa, ATCC27853; Table 5; P. aeruginosa ATCC 27853; read-out: MIC
Description: as §2, §3

E. Coli H 484 = assay: as above; conditions: Escherichia coli; Table 4; E. Coli H 484, Class C ESBL, MDR; read-out: MIC
Description: as §2, §3

E. Coli W 13352 = assay: as above; conditions: Escherichia coli; Table 4; E. Coli W 13352, Class A ESBL, MDR; read-out: MIC
Description: as §2, §3

E. Coli W 13351 = assay: as above; conditions: Escherichia coli; Table 4; E. Coli W 13351, Class A ESBL, MDR; read-out: MIC
Description: as §2, §3

E. Coli B 89 = assay: as above; conditions: Escherichia coli; Table 4; E. Coli B 89, Class C ESBL, MDR; read-out: MIC
Description: as §2, §3

E. Coli W 13353 = assay: as above; conditions: Escherichia coli; Table 4; E. Coli W 13353, Class A ESBL, MDR; read-out: MIC
Description: as §2, §3

P. aeruginosa Ps 21 = assay: as above; conditions: Pseudomonas aeruginosa, PS21; Table 5; P. aeruginosa Ps 21; read-out: MIC
Description: as §2, §3

K. penumoniae S 48 = assay: as above; conditions: Table 5; K. penumoniae S 48, Class B ESBL, MDR; read-out: MIC
Description: as §2, §3

K penumoniae H 521 = assay: as above; conditions: Table 4; K penumoniae H 521, KPC ESBL, MDR; read-out: MIC
Description: as §2, §3

E. Coli M 3 = assay: as above; conditions: Escherichia coli; Table 5; E. Coli M 3, Class B ESBL, MDR; read-out: MIC
Description: as §2, §3

K penumoniae H 525 = assay: as above; conditions: Table 4; K penumoniae H 525, KPC ESBL, MDR; read-out: MIC
Description: as §2, §3

K penumoniae H 523 = assay: as above; conditions: Table 4; K penumoniae H 523, KPC ESBL, MDR; read-out: MIC
Description: as §2, §3

A. baumannii G-165 = assay: Antibacterial activity of sulbactam / Cefepime combinations with a compound of the invention (MIC); conditions: Acinetobacter baumannii, G165; Table 8; A. baumannii G-165; Cefepime alone or with sulbactam and/or compound at fixed concentrations as named in the composition; read-out: MIC of Cefepime
Description: as §2

A. baumannii J-143 = assay: as above; conditions: Acinetobacter baumannii, J143; Table 8; A. baumannii J-143; Cefepime alone or with sulbactam and/or compound at fixed concentrations as named in the composition; read-out: MIC of Cefepime
Description: as §2

A. baumannii 1460648 = assay: as above; conditions: Acinetobacter baumannii; Table 8; A. baumannii 1460648; Cefepime alone or with sulbactam and/or compound at fixed concentrations as named in the composition; read-out: MIC of Cefepime
Description: as §2

A. baumannii S-334 = assay: as above; conditions: Acinetobacter baumannii, S334; Table 8; A. baumannii S-334; Cefepime alone or with sulbactam and/or compound at fixed concentrations as named in the composition; read-out: MIC of Cefepime
Description: as §2

[1] = M50, Table 3, E. coli M 50 expressing ESBL, agar dilution
[2] = M50, Table 4, E. Coli M 50, Class C ESBL, MDR

| Compound | MIC (E. coli NCTC 13351) [µg/mL] | MIC (E. coli 7 MP) [µg/mL] | MIC (E. coli M 50; [1]) [µg/mL] | MIC (E. coli M 50; [2]) [µg/mL] | MIC (E. Coli M 44) [µg/mL] | MIC (P. aeruginosa Ps 32) [µg/mL] | MIC (P. aeruginosa ATCC 27853) [µg/mL] | MIC (E. Coli H 484) [µg/mL] | MIC (E. Coli W 13352) [µg/mL] | MIC (E. Coli W 13351) [µg/mL] | MIC (E. Coli B 89) [µg/mL] | MIC (E. Coli W 13353) [µg/mL] | MIC (P. aeruginosa Ps 21) [µg/mL] | MIC (K. penumoniae S 48) [µg/mL] | MIC (K penumoniae H 521) [µg/mL] | MIC (E. Coli M 3) [µg/mL] | MIC (K penumoniae H 525) [µg/mL] | MIC (K penumoniae H 523) [µg/mL] | other results |
| --- | --- | --- | --- | --- | --- | --- | --- | --- | --- | --- | --- | --- | --- | --- | --- | --- | --- | --- | --- |
| NCCCC(=O)NNC(=O)[C@H]1CC[C@@H]2CN1C(=O)N2OS(=O)(=O)O (relative stereo) [Example 9, trans-sulfuric acid mono-[2-(N′-(4-amino-butanoyl)-hydrazinocarbonyl)-7-oxo-1,6-diaza-bicyclo[3.2.1]oct-6-yl]ester] | 1 (≈ 2.74 µM) | 4 (≈ 10.9 µM) | 2 (≈ 5.47 µM) | 1 (≈ 2.74 µM) | 0.5 (≈ 1.37 µM) | 16 (≈ 43.8 µM) | 8 (≈ 21.9 µM) | 2 (≈ 5.47 µM) | 1 (≈ 2.74 µM) | 1 (≈ 2.74 µM) | 1 (≈ 2.74 µM) | 1 (≈ 2.74 µM) | 8 (≈ 21.9 µM) | 1 (≈ 2.74 µM) | 1 (≈ 2.74 µM) | 2 (≈ 5.47 µM) | 0.5 (≈ 1.37 µM) | 0.5 (≈ 1.37 µM) |  |
| O=C(NNC(=O)[C@H]1CC[C@@H]2CN1C(=O)N2OS(=O)(=O)O)C1CCNCC1 (relative stereo) [Example 13, trans-sulfuric acid mono-[2-(N′-(piperidin-4-carbonyl)-hydrazinocarbonyl)-7-oxo-1,6-diaza-bicyclo[3.2.1]oct-6-yl]ester] | 1 (≈ 2.55 µM) | 2 (≈ 5.11 µM) | 1 (≈ 2.55 µM) | 1 (≈ 2.55 µM) | 1 (≈ 2.55 µM) | 16 (≈ 40.9 µM) | 32 (≈ 81.8 µM) | 4 (≈ 10.2 µM) | 2 (≈ 5.11 µM) | 1 (≈ 2.55 µM) | 1 (≈ 2.55 µM) | 1 (≈ 2.55 µM) | 32 (≈ 81.8 µM) | 1 (≈ 2.55 µM) | 1 (≈ 2.55 µM) | 1 (≈ 2.55 µM) | 1 (≈ 2.55 µM) | 0.5 (≈ 1.28 µM) |  |
| O=C(CN1CCNCC1)NNC(=O)[C@H]1CC[C@@H]2CN1C(=O)N2OS(=O)(=O)O (relative stereo) [Example 19, trans-sulfuric acid mono-[2-(N′-(piperazin-4-yl-acetyl)-hydrazinocarbonyl)-7-oxo-1,6-diaza-bicyclo[3.2.1]oct-6-yl]ester] | 1 (≈ 2.46 µM) | 2 (≈ 4.92 µM) | 1 (≈ 2.46 µM) | 2 (≈ 4.92 µM) | 1 (≈ 2.46 µM) | > 32 | 32 (≈ 78.7 µM) | 4 (≈ 9.84 µM) | 2 (≈ 4.92 µM) | 2 (≈ 4.92 µM) | 1 (≈ 2.46 µM) | 2 (≈ 4.92 µM) | > 32 | 4 (≈ 9.84 µM) | 1 (≈ 2.46 µM) | 1 (≈ 2.46 µM) | 1 (≈ 2.46 µM) | 1 (≈ 2.46 µM) |  |
| CO/N=C(\C(=O)N[C@@H]1C(=O)N2C(C(=O)[O-])=C(C[N+]3(C)CCCC3)CS[C@H]12)c1csc(N)n1 [Cefepime] |  |  |  |  |  |  |  |  |  |  |  |  |  |  |  |  |  |  | MIC (A. baumannii G-165): > 32 µg/mL; MIC (A. baumannii J-143): > 32 µg/mL; MIC (A. baumannii 1460648): > 32 µg/mL; MIC (A. baumannii S-334): 32 µg/mL |
